No end group written: not given here.
How the values were obtained:
[1] = tested on: SCF; experiment: SCF transport to the cell surface (SCF staining); assay type: cell-based; conditions: 100 μM peptide, 16 hours; FIG. 5
Method: FIG. 5: Arginine-ester peptide delivery and inhibition of SCF transport to the cell surface (16 hours). Left: No peptide; normal SCF membrane staining.
Cos-7 cells were plated overnight on glass coverslips in 10% serum containing DMEM. For the analysis, we suspended the peptide at 1 mM in PBS (phosphate buffered saline) which was diluted to final concentration in full medium. We washed the cells after 15 or 30 minutes and washed once with PBS and fixed with paraformaldehyed (4%) for 10 minutes and took images in PBS.

[2] = tested on: SCF-reporter construct; experiment: ER-to-Golgi transport of SCF-reporter construct (Golgi-staining of cells); assay type: cell-based; conditions: 2-hours pretreatment and 1-hour ER-to Golgi transport; FIG. 4

In the case of “Arginine-ester peptide: 20-mer SCF peptide (SEQ ID NO: 1) with glutamate carboxylates esterified with a guanidinium alkanol (NEEDNEISMLQEKEREFQEV; also: glutamate carboxylates esterified with a guanidinium alkanol (places and alkanol not given here); listed as Homo sapiens)”, the “inhibition of SCF transport to the cell surface (SCF staining)” value [1] was “shift to intracellular SCF staining” and the “% of cells exhibiting Golgi-staining of reporter construct (export of SCF-reporter construct)” value [2] was “block export of a SCF-reporter construct”.

From US9211340B2, “Means and methods of enhancing delivery to biological systems” (priority 2006, dated 2015)
